Experimental findings from patent US8623879B2, “1-heterocyclyl-1,5-dihydro-pyrazolo[3,4-D] pyrimidin-4-one derivates and their use as PDE9A modulators” (Boehringer Ingelheim International GmbH, priority 2008, dated 2014) are described below.

For orientation: IC50 means the midpoint of a concentration-inhibition curve.

This test concerns the target T1, human PDE9A2 (Homo sapiens, UniProt O76083).
T1 construct: made in house; host or cells: Sf9 insect cells (infected); crude lysate used as enzyme source
Kind of test: PDE9A2 enzymatic activity assay (scintillation proximity assay, SPA). It is filed as biochemical. Particulars: for inhibition at 10 µM: read-out: % inhibition of PDE9A2 (at 10 micromolar concentration), 10 micromolar concentration; for inhibition at 10 µM / % inhibition of PDE9A2 (at 10 micromolar concentration): values above 100% adjusted to 100%; for IC50: reported only as range 1-100 or 101-1200 nanomolar, specific value lies within range, read-out: IC50 within range [nanomolar (nM)].

T1 sequence (O76083 1-533 isoform O76083-2): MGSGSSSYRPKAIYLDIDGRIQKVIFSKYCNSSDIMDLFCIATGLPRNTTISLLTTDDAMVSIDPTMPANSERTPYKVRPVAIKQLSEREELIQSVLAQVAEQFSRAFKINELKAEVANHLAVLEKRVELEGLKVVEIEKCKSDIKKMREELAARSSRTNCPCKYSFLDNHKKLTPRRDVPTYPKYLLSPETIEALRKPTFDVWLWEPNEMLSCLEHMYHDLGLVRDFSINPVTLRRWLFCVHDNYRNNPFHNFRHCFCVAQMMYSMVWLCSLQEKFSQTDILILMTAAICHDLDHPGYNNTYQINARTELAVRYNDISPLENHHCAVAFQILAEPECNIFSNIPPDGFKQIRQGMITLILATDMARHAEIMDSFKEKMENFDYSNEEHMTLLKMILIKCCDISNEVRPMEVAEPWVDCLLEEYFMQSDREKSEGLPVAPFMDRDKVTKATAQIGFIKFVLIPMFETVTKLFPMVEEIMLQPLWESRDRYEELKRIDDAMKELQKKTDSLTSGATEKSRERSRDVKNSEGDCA

As for `O=c1[nH]c(Cc2ccc(F)c(Cl)c2)nc2c1cnn2C1CCCOC1` (racemic) [Example 102], the inhibition at 10 µM came out at 100% and the IC50 was in the range of 1 to 100 nM.

Consider `O=c1[nH]c(CC2CCCCC2)nc2c1cnn2C1CCCOC1` (racemic) [Example 103], for which the inhibition at 10 µM was 99% and the IC50 lay within 1 to 100 nM.

As for `CC1(C)CC(n2ncc3c(=O)[nH]c(CC4CCCC4)nc32)CCO1` (racemic) [Example 104], the inhibition at 10 µM was found to be 95% and the IC50 is 101 to 1200 nM.

`CCOc1ccccc1Cc1nc2c(cnn2C2CCOC(C)(C)C2)c(=O)[nH]1` (racemic) [Example 105]: the inhibition at 10 µM was 84% and the IC50 lay within 101 to 1200 nM.

As for `CC(C)Cc1nc2c(cnn2C2CCOC(C)(C)C2)c(=O)[nH]1` (racemic) [Example 106], the inhibition at 10 µM is 87% and the IC50 lay within 101 to 1200 nM.

As for `CC1(C)CC(n2ncc3c(=O)[nH]c(CC4CCC4)nc32)CCO1` (racemic) [Example 108], the inhibition at 10 µM was 89% and the IC50 lay in the range of 101 to 1200 nM.

`CC1CC(n2ncc3c(=O)[nH]c(Cc4ccccn4)nc32)CCO1` (racemic) [Example 111]: the inhibition at 10 µM is 88% and the IC50 is 101 to 1200 nM.

In the case of `CC1CC(n2ncc3c(=O)[nH]c(CC4CCCC4)nc32)CCO1` (racemic) [Example 112], the inhibition at 10 µM was found to be 97% and the IC50 was 1 to 100 nM.

`CC1CC(n2ncc3c(=O)[nH]c(Cc4ccccc4C(F)(F)F)nc32)CCO1` (racemic) [Example 113]: the inhibition at 10 µM was determined as 92% and the IC50 was 101 to 1200 nM.

For the compound `CC(C)Cc1nc2c(cnn2C2CCOC(C)C2)c(=O)[nH]1` (racemic) [Example 114], the inhibition at 10 µM came to 89% and the IC50 lay in the range of 101 to 1200 nM.

`CC(C)Cc1nc2c(cnn2C2CCOC(C)C2)c(=O)[nH]1` (racemic) [Example 115]: the “% inhibition of PDE9A2 (at 10 micromolar concentration)” value (shortened to “% inhibition of PDE9A2”) is reported as 92% and the IC50 lay within 101 to 1200 nM.

With `CC1CC(n2ncc3c(=O)[nH]c(Cc4ccccc4C(F)(F)F)nc32)CCO1` (racemic) [Example 116], the “% inhibition of PDE9A2” value is 93% and the IC50 was 101 to 1200 nM.

For `CC1CC(n2ncc3c(=O)[nH]c(CC4CCCC4)nc32)CCO1` (racemic) [Example 117], the “% inhibition of PDE9A2” value is 97% and the IC50 lay within 1 to 100 nM.

Turning to `CC1CC(n2ncc3c(=O)[nH]c(Cc4ccccn4)nc32)CCO1` (racemic) [Example 118], the “% inhibition of PDE9A2” value amounted to 89% and the IC50 fell in the range of 101 to 1200 nM.

On to `CCC(CC)Cc1nc2c(cnn2C2CCOC(C)C2)c(=O)[nH]1` (racemic) [Example 119], for which the inhibition at 10 µM was 95% and the IC50 was in the range of 1 to 100 nM.

`CC1CC(n2ncc3c(=O)[nH]c(CC4CCC4)nc32)CCO1` (racemic) [Example 120]: the inhibition at 10 µM turned out to be 95% and the IC50 was in the range of 1 to 100 nM.

On to `CC1CC(n2ncc3c(=O)[nH]c(Cc4ccccc4C#N)nc32)CCO1` (racemic) [Example 121], for which the inhibition at 10 µM came out at 94% and the IC50 is 101 to 1200 nM.

With `COc1cccnc1Cc1nc2c(cnn2C2CCCOC2)c(=O)[nH]1` (racemic) [Example 122], the inhibition at 10 µM was 85% and the IC50 was in the range of 101 to 1200 nM.

As for `O=c1[nH]c(Cc2ccccn2)nc2c1cnn2C1CCOC1` (racemic) [Example 124], the inhibition at 10 µM came to 95% and the IC50 is 101 to 1200 nM.

Regarding `N#Cc1ccccc1Cc1nc2c(cnn2C2CCCOC2)c(=O)[nH]1` (racemic) [Example 126], the inhibition at 10 µM came out at 98% and the IC50 lay in the range of 1 to 100 nM.

Take `COc1ccccc1Cc1nc2c(cnn2C2CCCOC2)c(=O)[nH]1` (racemic) [Example 127]: the inhibition at 10 µM came out at 97% and the IC50 fell in the range of 1 to 100 nM.

As to `O=c1[nH]c(Cc2cccc(C(F)(F)F)c2)nc2c1cnn2C1CCCOC1` (racemic) [Example 129], the inhibition at 10 µM was determined as 99% and the IC50 lay in the range of 1 to 100 nM.

As to `CCC(CC)Cc1nc2c(cnn2C2CCCOC2)c(=O)[nH]1` (racemic) [Example 130], the inhibition at 10 µM is 99% and the IC50 lay within 1 to 100 nM.

As to `CC(C)Cc1nc2c(cnn2C2CCOCC2C)c(=O)[nH]1` (racemic) [Example 132-1], the inhibition at 10 µM came to 97% and the IC50 fell in the range of 1 to 100 nM.

On to `CC1COCCC1n1ncc2c(=O)[nH]c(CC3CCCC3)nc21` (racemic) [Example 132-2], for which the inhibition at 10 µM came out at 100% and the IC50 was in the range of 1 to 100 nM.

As to `CC1COCCC1n1ncc2c(=O)[nH]c(CC3CCCC3)nc21` (racemic) [Example 132-5], the “% inhibition of PDE9A2” value stood at 100% and the IC50 lay in the range of 1 to 100 nM.

In the case of `CC(C)Cc1nc2c(cnn2C2CCOCC2C)c(=O)[nH]1` (racemic) [Example 132-8], the “% inhibition of PDE9A2” value was determined as 94% and the IC50 fell in the range of 101 to 1200 nM.

For the compound `CCC(C)Cc1nc2c(cnn2C2CCOCC2)c(=O)[nH]1` (racemic) [Example 135], the inhibition at 10 µM was 98% and the IC50 is 1 to 100 nM.

Turning to `O=c1[nH]c(Cc2ccccn2)nc2c1cnn2C1CCCCO1` (racemic) [Example 145], the inhibition at 10 µM turned out to be 84% and the IC50 is 101 to 1200 nM.

As for `CC(C)Cc1nc2c(cnn2C2CCCCO2)c(=O)[nH]1` (racemic) [Example 146], the inhibition at 10 µM came out at 91% and the IC50 was 101 to 1200 nM.

Take `O=c1[nH]c(Cc2ccccc2C(F)(F)F)nc2c1cnn2C1CCCCO1` (racemic) [Example 147-1]: the inhibition at 10 µM was found to be 86% and the 50% inhibitory concentration (IC50) fell in the range of 101 to 1200 nM.

As to `O=c1[nH]c(CC2CC2)nc2c1cnn2C1CCCCO1` (racemic) [Example 147-2], the inhibition at 10 µM was found to be 87% and the IC50 is 101 to 1200 nM.

For the compound `O=c1[nH]c(Cc2cccc(C(F)(F)F)c2)nc2c1cnn2C1CCCCO1` (racemic) [Example 147-3], the inhibition at 10 µM is 95% and the IC50 was 1 to 100 nM.

As for `O=c1[nH]c(CC2CCCC2)nc2c1cnn2C1CCCCO1` (racemic) [Example 147], the inhibition at 10 µM was found to be 99% and the IC50 fell in the range of 1 to 100 nM.

In the case of `COC(=O)N1CCCC(n2ncc3c(=O)[nH]c(CC4CCCC4)nc32)C1` (racemic) [Example 154], the inhibition at 10 µM is 100% and the IC50 was in the range of 1 to 100 nM.

With `COC(=O)N1CCCC(n2ncc3c(=O)[nH]c(Cc4ccccc4)nc32)C1` (racemic) [Example 155], the inhibition at 10 µM stood at 100% and the IC50 fell in the range of 1 to 100 nM.

In the case of `COC(=O)N1CCCC(n2ncc3c(=O)[nH]c(Cc4ccccc4OC(F)(F)F)nc32)C1` (racemic) [Example 156], the inhibition at 10 µM is 99% and the IC50 was 1 to 100 nM.

Take `CC(=O)N1CCCC(n2ncc3c(=O)[nH]c(CC4CCCC4)nc32)C1` (racemic) [Example 157]: the inhibition at 10 µM is 97% and the IC50 is 1 to 100 nM.

Take `CC(=O)N1CCCC(n2ncc3c(=O)[nH]c(Cc4ccccc4)nc32)C1` (racemic) [Example 158]: the inhibition at 10 µM amounted to 97% and the IC50 lay in the range of 1 to 100 nM.

On to `CN(C)C(=O)N1CCCC(n2ncc3c(=O)[nH]c(Cc4ccccc4)nc32)C1` (racemic) [Example 159], for which the inhibition at 10 µM was found to be 100% and the IC50 was 1 to 100 nM.

With `CN(C)C(=O)N1CCCC(n2ncc3c(=O)[nH]c(CC4CCCC4)nc32)C1` (racemic) [Example 160], the inhibition at 10 µM is 96% and the IC50 fell in the range of 1 to 100 nM.

On to `CN(C)C(=O)N1CCCC(n2ncc3c(=O)[nH]c(Cc4ccccc4OC(F)(F)F)nc32)C1` (racemic) [Example 161], for which the inhibition at 10 µM stood at 95% and the IC50 lay in the range of 101 to 1200 nM.

On to `O=C(Oc1ccc(F)cc1)N1CCCC(n2ncc3c(=O)[nH]c(CC4CCCC4)nc32)C1` (racemic) [Example 162], for which the inhibition at 10 µM was 98% and the IC50 fell in the range of 1 to 100 nM.

Consider `O=C(c1ccccc1)N1CCCC(n2ncc3c(=O)[nH]c(Cc4ccccc4OC(F)(F)F)nc32)C1` (racemic) [Example 163], for which the inhibition at 10 µM is 97% and the half-maximal inhibitory concentration (IC50) is 101 to 1200 nM.

For the compound `CC(=O)N1CCC(n2ncc3c(=O)[nH]c(Cc4ccccc4OC(F)(F)F)nc32)C1` (racemic) [Example 164], the inhibition at 10 µM is 98% and the IC50 was in the range of 101 to 1200 nM.

As to `CC(=O)N1CCC(n2ncc3c(=O)[nH]c(CC4CCCC4)nc32)C1` (racemic) [Example 165], the inhibition at 10 µM turned out to be 99% and the IC50 was 101 to 1200 nM.

With `O=C(c1ccccc1)N1CCC(n2ncc3c(=O)[nH]c(Cc4ccccc4)nc32)C1` (racemic) [Example 166], the inhibition at 10 µM came to 92% and the IC50 lay within 101 to 1200 nM.

With `O=C(c1ccccc1)N1CCC(n2ncc3c(=O)[nH]c(CC4CCCC4)nc32)C1` (racemic) [Example 167], the inhibition at 10 µM came out at 93% and the IC50 is 101 to 1200 nM.

As to `COc1ccccc1Cc1nc2c(cnn2C2CCN(C(C)=O)C2)c(=O)[nH]1` (racemic) [Example 168], the inhibition at 10 µM stood at 90% and the IC50 lay within 101 to 1200 nM.

`O=C(c1ccccc1)N1CCC(n2ncc3c(=O)[nH]c(Cc4ccccc4OC(F)(F)F)nc32)C1` (racemic) [Example 169]: the inhibition at 10 µM is 86% and the IC50 is 101 to 1200 nM.

On to `COc1ccccc1Cc1nc2c(cnn2C2CCN(C(=O)c3ccccc3)C2)c(=O)[nH]1` (racemic) [Example 170], for which the inhibition at 10 µM came out at 75% and the IC50 lay in the range of 101 to 1200 nM.

As for `O=C(c1ccccc1)N1CCC(n2ncc3c(=O)[nH]c(CC4CCC4)nc32)C1` (racemic) [Example 171], the inhibition at 10 µM was found to be 100% and the IC50 was in the range of 101 to 1200 nM.

Take `CC(=O)N1CCC(n2ncc3c(=O)[nH]c(Cc4ccccc4)nc32)C1` (racemic) [Example 172]: the inhibition at 10 µM was 100% and the IC50 lay within 1 to 100 nM.
